Measurements as given in ChEMBL document CHEMBL6127042, “Design, synthesis and antimycobacterial activity of novel benzothiazinones with improved water solubility” (Eur J Med Chem, 2024).
Converted amounts (≈) assume the structure as drawn.

Columns and labels:
[1] = Cytotoxicity against African green monkey Vero cells assessed as reduction in cell viability incubated for 72 hrs by MTT assay; assay type: toxicity, cell-based; settings: chlorocebus sabaeus
[2] = system: Mycobacterium tuberculosis; test: Antitubercular activity against Mycobacterium tuberculosis H37Rv ATCC 27294 assessed as bacterial growth inhibition incubated for 7 days in 7H9 medium by alamar blue staining based microplate fluorometric analysis; assay type: functional; settings: H37Rv ATCC 27294, 168 h, time 7 day
[3] = Water solubility of the compound in 80% acetronitrile/20% water meausred after 24 hrs by HPLC-UV analysis; assay type: physicochemical; settings: 80% acetonitrile/20% water
[4] = Half life in female ICR mouse at 25 mg/kg, po administered as single dose measured upto 24 hrs by HPLC analysis; assay type: ADME, organism-based; settings: in vivo
[5] = AUC (0 to infinity) in female ICR mouse at 25 mg/kg, po administered as single dose measured upto 24 hrs by HPLC analysis; assay type: ADME, organism-based; settings: in vivo
[6] = Cmax in female ICR mouse at 25 mg/kg, po administered as single dose measured upto 24 hrs by HPLC analysis; assay type: ADME, organism-based; settings: in vivo
[7] = Tmax in female ICR mouse at 25 mg/kg, po administered as single dose measured upto 24 hrs by HPLC analysis; assay type: ADME, organism-based; settings: in vivo
[8] = Water solubility of the compound in 60% acetronitrile/40% water meausred after 24 hrs by HPLC-UV analysis; assay type: physicochemical; settings: 60% acetonitrile/40% water
[9] = Acute toxicity in female ICR mouse assessed as change in body weight at 1000 mg/kg, po administered as single dose measured for 7 days; assay type: organism-based; settings: in vivo, 168 h, time 7 day
[10] = Acute toxicity in female ICR mouse assessed as lethal dose administered as single oral dose measured for 7 days; settings: in vivo, time 7 day
hERG (KCNH2) = hERG (KCNH2) (Homo sapiens, UniProt Q12809); test: Inhibition of human ERG expressed in HEK293 cells at 10 uM by electrophysiological method relative to control; assay type: toxicity, cell-based; settings: HEK293 cells expressing hERG
[11] = Acute toxicity in female ICR mouse assessed as animal death at 1000 mg/kg, po administered as single dose measured for 7 days; assay type: organism-based; settings: in vivo, 168 h, time 7 day

Chain of hERG (KCNH2) (Q12809 whole entry): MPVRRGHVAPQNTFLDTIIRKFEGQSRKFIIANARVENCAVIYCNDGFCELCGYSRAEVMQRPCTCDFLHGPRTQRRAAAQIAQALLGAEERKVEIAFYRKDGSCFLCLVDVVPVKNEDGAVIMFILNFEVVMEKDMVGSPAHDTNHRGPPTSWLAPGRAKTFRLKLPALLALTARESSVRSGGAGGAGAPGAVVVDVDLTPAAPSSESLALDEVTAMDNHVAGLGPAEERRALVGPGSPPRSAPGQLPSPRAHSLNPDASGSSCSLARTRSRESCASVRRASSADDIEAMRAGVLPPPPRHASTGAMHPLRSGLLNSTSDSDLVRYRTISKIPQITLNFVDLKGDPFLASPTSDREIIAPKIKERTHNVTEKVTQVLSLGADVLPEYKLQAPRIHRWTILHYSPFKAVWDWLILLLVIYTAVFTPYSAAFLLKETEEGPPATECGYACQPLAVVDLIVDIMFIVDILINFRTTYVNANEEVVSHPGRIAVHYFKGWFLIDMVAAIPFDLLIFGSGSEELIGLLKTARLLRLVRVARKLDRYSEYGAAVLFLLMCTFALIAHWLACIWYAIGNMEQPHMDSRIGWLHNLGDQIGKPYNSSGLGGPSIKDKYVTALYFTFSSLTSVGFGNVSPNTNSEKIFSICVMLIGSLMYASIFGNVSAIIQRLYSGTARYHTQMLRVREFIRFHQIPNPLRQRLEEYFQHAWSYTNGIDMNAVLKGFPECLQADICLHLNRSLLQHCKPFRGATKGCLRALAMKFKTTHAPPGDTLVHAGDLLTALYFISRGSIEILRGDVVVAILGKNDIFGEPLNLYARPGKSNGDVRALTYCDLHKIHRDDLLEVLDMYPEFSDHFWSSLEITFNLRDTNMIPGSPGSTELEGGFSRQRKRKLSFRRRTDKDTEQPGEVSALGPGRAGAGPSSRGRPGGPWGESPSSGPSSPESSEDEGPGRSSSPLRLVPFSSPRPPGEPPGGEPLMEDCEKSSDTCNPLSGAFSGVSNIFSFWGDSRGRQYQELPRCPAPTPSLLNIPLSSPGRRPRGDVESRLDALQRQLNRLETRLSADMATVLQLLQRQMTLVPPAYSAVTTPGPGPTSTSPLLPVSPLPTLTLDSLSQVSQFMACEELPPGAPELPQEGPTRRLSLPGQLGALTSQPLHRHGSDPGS

Row | Structure (SMILES) | CC50 at 72 h [1] [µM] | MIC [2] [µM] | solubility at 24 h [3] [µg/mL] | other results
1 | O=C(O)CNC1CCC(CN2CCN(c3nc(=O)c4cc(C(F)(F)F)cc([N+](=O)[O-])c4s3)CC2)CC1 (configuration not stated) | > 121 | > 18.9 |  | 
2 | CC(C)(ON=C1CCC(CN2CCN(c3nc(=O)c4cc(C(F)(F)F)cc([N+](=O)[O-])c4s3)CC2)CC1)C(=O)NCC(=O)O (configuration not stated) |  | 0.653 (≈ 0.41 µg/mL) | 530 (≈ 843 µM) | 
3 | CC(C)(C)OC(=O)CCON=C1CCC(CN2CCN(c3nc(=O)c4cc(C(F)(F)F)cc([N+](=O)[O-])c4s3)CC2)CC1 (configuration not stated) | > 104 | < 0.026 |  | 
4 | CC(C)(C)OC(=O)CNC(=O)CON=C1CCC(CN2CCN(c3nc(=O)c4cc(C(F)(F)F)cc([N+](=O)[O-])c4s3)CC2)CC1 (configuration not stated) | > 98 | 0.044 (≈ 0.0289 µg/mL) |  | 
5 | CC(C)(ON=C1CCC(CN2CCN(c3nc(=O)c4cc(C(F)(F)F)cc([N+](=O)[O-])c4s3)CC2)CC1)C(=O)O (configuration not stated) | > 112 | 0.114 (≈ 0.0652 µg/mL) | 490 (≈ 857 µM) | 
6 | CC(C)(C)OC(=O)NCCON=C1CCC(CN2CCN(c3nc(=O)c4cc(C(F)(F)F)cc([N+](=O)[O-])c4s3)CC2)CC1 (configuration not stated) | > 102 | 0.033 (≈ 0.0207 µg/mL) | 2.4 (≈ 3.82 µM) | 
7 | O=C(O)CCON=C1CCC(CN2CCN(c3nc(=O)c4cc(C(F)(F)F)cc([N+](=O)[O-])c4s3)CC2)CC1 (configuration not stated) | > 115 | 0.214 (≈ 0.119 µg/mL) |  | 
8 | CC(C)(C)OC(=O)CNC(=O)CCON=C1CCC(CN2CCN(c3nc(=O)c4cc(C(F)(F)F)cc([N+](=O)[O-])c4s3)CC2)CC1 (configuration not stated) | > 95 | < 0.026 |  | 
9 | C[C@H](NC(=O)CON=C1CCC(CN2CCN(c3nc(=O)c4cc(C(F)(F)F)cc([N+](=O)[O-])c4s3)CC2)CC1)C(=O)O (some centres not stated) |  | 2.9 (≈ 1.79 µg/mL) |  | 
10 | CO[C@H]1/C=C/O[C@@]2(C)Oc3c(C)c(O)c4c(O)c(c(/C=N/N5CCN(C)CC5)c(O)c4c3C2=O)NC(=O)/C(C)=C\C=C\[C@H](C)[C@H](O)[C@@H](C)[C@@H](O)[C@@H](C)[C@H](OC(C)=O)[C@@H]1C [RIFAMPIN] |  | 0.04 (≈ 0.0329 µg/mL) |  | 
11 | C[C@H](NC(=O)C(C)(C)ON=C1CCC(CN2CCN(c3nc(=O)c4cc(C(F)(F)F)cc([N+](=O)[O-])c4s3)CC2)CC1)C(=O)O (some centres not stated) |  | 1.33 (≈ 0.853 µg/mL) |  | 
12 | O=C(O)CNC(=O)CON=C1CCC(CN2CCN(c3nc(=O)c4cc(C(F)(F)F)cc([N+](=O)[O-])c4s3)CC2)CC1 (configuration not stated) |  | 1.54 (≈ 0.925 µg/mL) |  | 
13 | O=C(O)CNC(=O)CCON=C1CCC(CN2CCN(c3nc(=O)c4cc(C(F)(F)F)cc([N+](=O)[O-])c4s3)CC2)CC1 (configuration not stated) | > 104 | 0.338 (≈ 0.208 µg/mL) |  | 
14 | C[C@H](NC(=O)C(C)(C)ON=C1CCC(CN2CCN(c3nc(=O)c4cc(C(F)(F)F)cc([N+](=O)[O-])c4s3)CC2)CC1)C(=O)OC(C)(C)C (some centres not stated) | > 92 | < 0.023 |  | 
15 | O=c1nc(N2CCN(CC3CCCCC3)CC2)sc2c([N+](=O)[O-])cc(C(F)(F)F)cc12 [MACOZINONE] | > 140 | < 0.035 | 1.1 (≈ 2.41 µM) | half-life [4]: 6.43 h; AUC(0-inf) [5]: 2.31 µg·h/mL; Cmax [6]: 0.295 µg/mL; Tmax [7]: 2 h
16 | COC(=O)CNC1CCC(CN2CCN(c3nc(=O)c4cc(C(F)(F)F)cc([N+](=O)[O-])c4s3)CC2)CC1 (configuration not stated) |  | 1.05 (≈ 0.573 µg/mL) |  | 
17 | CON=C1CCC(CN2CCN(c3nc(=O)c4cc(C(F)(F)F)cc([N+](=O)[O-])c4s3)CC2)CC1 (configuration not stated) |  | < 0.035 | 1.6 (≈ 3.2 µM) | half-life [4]: 5.24 h; AUC(0-inf) [5]: 16.9 µg·h/mL; Cmax [6]: 8.37 µg/mL; Tmax [7]: 0.69 h
18 | CC(C)(C)OC(=O)CNC(=O)C(C)(C)ON=C1CCC(CN2CCN(c3nc(=O)c4cc(C(F)(F)F)cc([N+](=O)[O-])c4s3)CC2)CC1 (configuration not stated) | > 94 | 0.086 (≈ 0.0589 µg/mL) | 4 (≈ 5.84 µM) | 
19 | NCCON=C1CCC(CN2CCN(c3nc(=O)c4cc(C(F)(F)F)cc([N+](=O)[O-])c4s3)CC2)CC1 (configuration not stated) |  | 0.091 (≈ 0.0481 µg/mL) |  | half-life [4]: 3.6 h; solubility at 24 h [8]: > 2000 µg/mL; Activity [9]: Toxic; LD50 at 168 h [10]: > 1000 mg/kg; AUC(0-inf) [5]: 3.84 µg·h/mL; inhibition at 10 µM (hERG (KCNH2)): 5.66%; Cmax [6]: 0.798 µg/mL; Activity [11]: Non-Toxic; Tmax [7]: 1 h
20 | O=C(O)CON=C1CCC(CN2CCN(c3nc(=O)c4cc(C(F)(F)F)cc([N+](=O)[O-])c4s3)CC2)CC1 (configuration not stated) | > 118 | < 0.029 | 1200 (≈ 2210 µM) | half-life [4]: 3.06 h; Activity [9]: Toxic; LD50 at 168 h [10]: > 1000 mg/kg; AUC(0-inf) [5]: 1.41 µg·h/mL; inhibition at 10 µM (hERG (KCNH2)): 5.8%; Cmax [6]: 0.77 µg/mL; Activity [11]: Non-Toxic; Tmax [7]: 0.33 h
21 | NNC(=O)c1ccncc1 [ISONIAZID] |  | 0.342 (≈ 0.0469 µg/mL) |  | 
22 | C[C@H](NC(=O)CON=C1CCC(CN2CCN(c3nc(=O)c4cc(C(F)(F)F)cc([N+](=O)[O-])c4s3)CC2)CC1)C(=O)OC(C)(C)C (some centres not stated) | > 95 | 0.181 (≈ 0.121 µg/mL) |  | 
